Laboratory results taken from ChEMBL document CHEMBL2021891, “STAT-3 inhibitory bisabolanes from Carthamus glaucus” (J Nat Prod, 2012).

Tests used:
[1] = Inhibition of TNFalpha-induced NF-kappaB activation in human HIV-1-LTR-luc 5.1 cells treated 30 mins before TNFalpha challenge measured after 6 hrs
[2] = target: Signal transducer and activator of transcription 3 (Homo sapiens, UniProt P40763); assay: Inhibition of IFNgamma-induced STAT3 activation in human HeLa cells expressing p4xM67-tk-Luc treated 30 mins before […] challenge measured after 6 hrs; format: cell-based
Sequence of Signal transducer and activator of transcription 3 (P40763 whole entry): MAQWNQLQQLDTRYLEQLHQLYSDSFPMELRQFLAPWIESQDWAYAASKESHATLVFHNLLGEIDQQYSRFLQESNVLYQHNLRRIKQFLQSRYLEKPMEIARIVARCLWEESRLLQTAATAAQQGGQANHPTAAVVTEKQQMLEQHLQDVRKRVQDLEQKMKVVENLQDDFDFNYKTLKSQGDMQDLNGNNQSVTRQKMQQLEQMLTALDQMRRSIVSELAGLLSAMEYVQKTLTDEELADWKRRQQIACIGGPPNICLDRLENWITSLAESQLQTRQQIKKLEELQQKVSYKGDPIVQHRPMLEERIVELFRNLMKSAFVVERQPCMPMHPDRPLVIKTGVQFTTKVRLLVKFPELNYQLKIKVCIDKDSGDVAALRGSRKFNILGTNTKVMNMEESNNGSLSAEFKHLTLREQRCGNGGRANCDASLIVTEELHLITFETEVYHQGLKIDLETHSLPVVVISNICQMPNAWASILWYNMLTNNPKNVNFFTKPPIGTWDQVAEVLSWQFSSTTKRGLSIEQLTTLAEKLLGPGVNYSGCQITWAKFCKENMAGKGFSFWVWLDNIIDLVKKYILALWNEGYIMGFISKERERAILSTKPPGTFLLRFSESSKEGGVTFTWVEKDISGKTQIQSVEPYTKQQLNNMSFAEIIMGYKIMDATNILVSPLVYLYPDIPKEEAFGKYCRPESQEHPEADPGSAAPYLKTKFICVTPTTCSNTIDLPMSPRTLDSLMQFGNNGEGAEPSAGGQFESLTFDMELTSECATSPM

CC(C)=CCC[C@](C)(O[C@@H]1O[C@H](C)[C@H](O)[C@H](O)[C@H]1O)[C@@H]1CC=C(C)CC1 (relative stereo)
IC50 [1]: 110 µM
IC50 [2]: 6.3 µM

CC(C)=CCC[C@](C)(O[C@@H]1O[C@H](C)[C@H](O)[C@H](OC(=O)C=C(C)C)[C@H]1O)[C@@H]1CC=C(C)CC1 (relative stereo)
IC50 [1]: 60 µM
IC50 [2]: 110 µM

CC(C)=CCC[C@](C)(O)[C@@H]1CC=C(C)CC1 (relative stereo) [LEVOMENOL]
IC50 [1]: > 220 µM
IC50 [2]: 73 µM
